Values quoted from earlier work, collected in paper PMC7401249 (Marine Drugs, 2020).
“Also recorded” adds a separate entry of the source.

ProTx-I
inhibition of CaV3.1 current over CaV3.2 (CaV3.1): selective inhibition

ProTx-II
hCaV3.2 current block among three CaV3.x subtypes (hCaV3.2): selectively block the hCaV3.2 current
NaV1.7 block (NaV1.7): NaV1.7 selective blocker; also recorded: inhibits NaV1.7
